In ChEMBL document CHEMBL4177539, “Discovery of N-((3R,4R)-4-Fluoro-1-(6-((3-methoxy-1-methyl-1H-pyrazol-4-yl)amino)-9-methyl-9H-purin-2-yl)pyrrolidine-3-yl)acrylamide (PF-06747775) through Structure-Based Drug Design: A High Affinity Irreversible Inhibitor Targeting Oncogenic EGFR Mutants with Selectivity over Wild-Type EGFR” (J Med Chem, 2017):

What was measured:
[1] = physchem; conditions: octanol/water
[2] = test system: Hepatocyte; conditions: human, hepatocytes, 1 µM
[3] = in vitro; conditions: human, liver microsomes
[4] = in vitro; conditions: dog, MDCK

logD [1]: 2.6 | CLH [2]: 23 µL/min/mg | microsomal CLint at […], 1 µM [3]: 32 µL/min/mg | Papp [4]: 18 ×10⁻⁶ cm/s
SMILES: C=CC(=O)N[C@@H]1CN(c2nc(Nc3cn(C)nc3OC)c3ncn(C(C)C)c3n2)C[C@H]1F
